Test results: PubChem BioAssay (NCI)
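Following 48 hours of exposure in 96-well plates, responses at five concentrations were used to interpolate endpoints linearly. TGI denotes the concentration required for complete inhibition of growth.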

Key:
Experiment in all cases: DTP human tumour cell line panel, 48 h
[1] = system: 786-0 renal
[2] = system: A498 renal
[3] = system: A549 NSCLC
[4] = system: ACHN renal
[5] = system: CAKI-1 renal
[6] = system: CCRF-CEM leukemia
[7] = system: COLO 205 colon
[8] = system: DLD-1 colon
[9] = system: DMS 114 small cell lung
[10] = system: DMS 273 small cell lung
[11] = system: EKVX NSCLC
[12] = system: HCC-2998 colon
[13] = system: HCT-116 colon
[14] = system: HCT-15 colon
[15] = system: HL-60(TB) leukemia
[16] = system: HOP-18 NSCLC
[17] = system: HOP-62 NSCLC
[18] = system: HOP-92 NSCLC
[19] = system: HT29 colon
[20] = system: IGROV1 ovarian
[21] = system: K-562 leukemia
[22] = system: KM12 colon
[23] = system: KM20L2 colon
[24] = system: LOX IMVI melanoma
[25] = system: LXFL 529 NSCLC
[26] = system: M14 melanoma
[27] = system: M19-MEL melanoma
[28] = system: MALME-3M melanoma
[29] = system: MOLT-4 leukemia
[30] = system: NCI-H226 lung
[31] = system: NCI-H23 lung
[32] = system: NCI-H460 lung
[33] = system: NCI-H522 lung
[34] = system: OVCAR-3 ovarian
[35] = system: OVCAR-4 ovarian
[36] = system: OVCAR-5 ovarian
[37] = system: OVCAR-8 ovarian
[38] = system: RPMI-8226 leukemia
[39] = system: RXF 393 renal
[40] = system: RXF-631 renal
[41] = system: SF-268 CNS
[42] = system: SF-295 CNS
[43] = system: SF-539 CNS
[44] = system: SK-MEL-2 melanoma
[45] = system: SK-MEL-28 melanoma
[46] = system: SK-MEL-5 melanoma
[47] = system: SK-OV-3 ovarian
[48] = system: SN12C renal
[49] = system: SNB-19 CNS
[50] = system: SNB-75 CNS
[51] = system: SNB-78 CNS
[52] = system: SW-620 colon
[53] = system: TK-10 renal
[54] = system: U251 CNS
[55] = system: UACC-257 melanoma
[56] = system: UACC-62 melanoma
[57] = system: UO-31 renal
[58] = system: BT-549 breast
[59] = system: DU-145 prostate
[60] = system: HS 578T breast
[61] = system: MCF7 breast
[62] = system: MDA-MB-231 breast
[63] = system: MDA-MB-435
[64] = system: MDA-N
[65] = system: NCI/ADR-RES ovarian
[66] = system: PC-3 prostate
[67] = system: SR leukemia
[68] = system: T-47D breast
[69] = system: XF 498 CNS

C#CCN(Cc1ccc2nc(-c3ccccc3)c(Cl)nc2c1)c1cc(OC)c(OC)c(OC)c1
TGI [1]: > 100 µM | TGI [2]: > 100 µM | TGI [3]: > 100 µM | TGI [4]: > 100 µM | TGI [5]: > 100 µM | TGI [6]: > 100 µM | TGI [7]: > 100 µM | TGI [8]: > 100 µM | TGI [9]: 51.8 µM | TGI [10]: > 100 µM | TGI [11]: > 100 µM | TGI [12]: > 100 µM | TGI [13]: > 100 µM | TGI [14]: > 100 µM | TGI [15]: > 100 µM | TGI [16]: > 100 µM | TGI [17]: > 100 µM | TGI [18]: > 100 µM | TGI [19]: > 100 µM | TGI [20]: > 100 µM | TGI [21]: > 100 µM | TGI [22]: > 100 µM | TGI [23]: > 100 µM | TGI [24]: 40.4 µM | TGI [25]: > 100 µM | TGI [26]: > 100 µM | TGI [27]: > 100 µM | TGI [28]: > 100 µM | TGI [29]: > 100 µM | TGI [30]: > 100 µM | TGI [31]: > 100 µM | TGI [32]: > 100 µM | TGI [33]: > 100 µM | TGI [34]: > 100 µM | TGI [35]: > 100 µM | TGI [36]: > 100 µM | TGI [37]: > 100 µM | TGI [38]: 43.5 µM | TGI [39]: > 100 µM | TGI [40]: > 100 µM | TGI [41]: > 100 µM | TGI [42]: > 100 µM | TGI [43]: > 100 µM | TGI [44]: > 100 µM | TGI [45]: > 100 µM | TGI [46]: > 100 µM | TGI [47]: > 100 µM | TGI [48]: > 100 µM | TGI [49]: > 100 µM | TGI [50]: > 100 µM | TGI [51]: > 100 µM | TGI [52]: 34.2 µM | TGI [53]: > 100 µM | TGI [54]: > 100 µM | TGI [55]: > 100 µM | TGI [56]: > 100 µM | TGI [57]: > 100 µM

O=c1oc2ccccc2c(O)c1C(C/C(CCN1CCCC1)=N/O)c1ccccc1 (configuration not stated)
TGI [1]: > 100 µM | TGI [2]: > 100 µM | TGI [3]: > 100 µM | TGI [4]: > 100 µM | TGI [58]: > 100 µM | TGI [5]: > 100 µM | TGI [7]: > 100 µM | TGI [8]: > 100 µM | TGI [9]: > 100 µM | TGI [59]: > 100 µM | TGI [11]: > 100 µM | TGI [12]: > 100 µM | TGI [13]: > 100 µM | TGI [14]: > 100 µM | TGI [15]: > 31.6 µM | TGI [17]: > 100 µM | TGI [18]: > 100 µM | TGI [60]: > 100 µM | TGI [19]: > 100 µM | TGI [20]: > 100 µM | TGI [21]: > 31.6 µM | TGI [22]: > 100 µM | TGI [23]: > 100 µM | TGI [24]: > 100 µM | TGI [25]: > 100 µM | TGI [26]: > 100 µM | TGI [27]: > 100 µM | TGI [28]: > 100 µM | TGI [61]: > 100 µM | TGI [62]: > 100 µM | TGI [63]: > 100 µM | TGI [64]: > 100 µM | TGI [29]: > 100 µM | TGI [30]: > 100 µM | TGI [31]: > 100 µM | TGI [32]: > 100 µM | TGI [33]: > 100 µM | TGI [65]: > 100 µM | TGI [34]: > 100 µM | TGI [35]: > 100 µM | TGI [36]: > 100 µM | TGI [37]: > 100 µM | TGI [66]: > 100 µM | TGI [38]: > 100 µM | TGI [39]: > 100 µM | TGI [40]: > 100 µM | TGI [41]: > 100 µM | TGI [42]: > 100 µM | TGI [43]: > 100 µM | TGI [44]: > 100 µM | TGI [45]: > 100 µM | TGI [46]: > 100 µM | TGI [47]: > 100 µM | TGI [48]: > 100 µM | TGI [49]: > 100 µM | TGI [50]: > 100 µM | TGI [67]: > 100 µM | TGI [52]: > 100 µM | TGI [68]: > 100 µM | TGI [53]: > 100 µM | TGI [54]: > 100 µM | TGI [55]: > 100 µM | TGI [56]: > 100 µM | TGI [57]: > 100 µM | TGI [69]: > 100 µM
